From patent publication US12629400B2, “Pharmaceutical compositions and methods for treating or preventing bacterial infections in humans and in animals” (LaGray, Inc., priority 2023, dated 2026) come the findings set out here.

Each structure is given as a SMILES string. Converted amounts (≈) assume the structure as drawn. Like-named read-outs stand apart in the source and are kept apart here.

Format in all cases: cell-based
The subject of one assay is Moraxella catarrhalis. The assay can be described thus: Agar dilution antibacterial susceptibility (MIC). For orientation: In agar dilution, organisms are placed on agar that contains the substance at set levels.
In the next assay the test system is Enterococcus faecium. Kind of assay: Agar dilution antibacterial susceptibility (MIC).
Another assay relates to Streptococcus pyogenes. The assay can be described thus: Agar dilution antibacterial susceptibility (MIC).
For a further assay, the system named is Chlamydia pneumoniae. Kind of assay: Agar dilution antibacterial susceptibility (MIC).
The subject of a further assay is Hemophilus influenzae. Kind of assay: Agar dilution antibacterial susceptibility (MIC). The conditions noted are these: Haemophilus influenzae.
For a further assay, the system named is Legionella pneumophila. The assay can be described thus: microbe, parasite or virus in culture.
In a further assay the test system is S. aureus (MRSA). Kind of assay: Agar dilution antibacterial susceptibility (MIC). The conditions noted are these: Staphylococcus aureus.
The test system of the next assay is E. faecium (VRE). The assay can be described thus: Agar dilution antibacterial susceptibility (MIC). The conditions noted are these: Enterococcus faecium.
The test system of the next assay is S. pneumoniae (DRSP). The assay can be described thus: Agar dilution antibacterial susceptibility (MIC). The note with it: Streptococcus pneumoniae.
A further assay concerns Streptococcus pneumoniae. The assay can be described thus: Agar dilution antibacterial susceptibility (MIC).
For another assay, the system named is Klebsiella pneumoniae. The assay can be described thus: Agar dilution antibacterial susceptibility (MIC).
The next assay deals with Staphylococcus aureus. The assay can be described thus: Agar dilution antibacterial susceptibility (MIC).
Another assay has as its system Clostridium difficile. Kind of assay: Agar dilution antibacterial susceptibility (MIC). The conditions noted are these: Clostridioides difficile.
Where [1] appears, read: Hemophilus influenzae, agar dilution, read-out: MIC.
Where [2] appears, read: S. aureus (MRSA), agar dilution, read-out: MIC.
The mark [3] stands for this setting: E. faecium (VRE), agar dilution, read-out: MIC.
[4] abbreviates: S. pneumoniae (DRSP), agar dilution, read-out: MIC.

As to `CN[C@H](CC(C)C)C(=O)N[C@H]1C(=O)N[C@@H](CC(N)=O)C(=O)N[C@H]2C(=O)N[C@H]3C(=O)N[C@H](C(=O)N[C@H](C(=O)O)c4cc(O)cc(O)c4-c4cc3ccc4O)[C@H](O)c3ccc(c(Cl)c3)Oc3cc2cc(c3O[C@@H]2O[C@H](CO)[C@@H](O)[C@H](O)[C@H]2O[C@H]2C[C@](C)(N)[C@H](O)[C@H](C)O2)Oc2ccc(cc2Cl)[C@H]1O` [Vancomycin, vancomycin], the MIC with Moraxella catarrhalis amounted to 0.01 µg/mL (≈ 0.0069 µM); in the assay on Enterococcus faecium it was 1 µg/mL (≈ 0.69 µM); in the assay on Streptococcus pyogenes, 0.06 µg/mL (≈ 0.0414 µM); with Chlamydia pneumoniae, 0.5 µg/mL (≈ 0.345 µM); in the assay on Hemophilus influenzae, 0.06 µg/mL (≈ 0.0414 µM); with Legionella pneumophila it was 0.06 µg/mL (≈ 0.0414 µM). The MIC against S. aureus (MRSA) (MRSA) worked out at 2 µg/mL (≈ 1.38 µM); against E. faecium (VRE) (VRE), 125 µg/mL (≈ 86.3 µM); against S. pneumoniae (DRSP), 0.5 µg/mL (≈ 0.345 µM); with Streptococcus pneumoniae, 0.25 µg/mL (≈ 0.173 µM); with Klebsiella pneumoniae, 0.5 µg/mL (≈ 0.345 µM); in the assay with Staphylococcus aureus, 0.13 µg/mL (≈ 0.0897 µM). This compound also showed an MIC against Clostridium difficile of 0.5 µg/mL (≈ 0.345 µM).

Regarding `O=C(O)c1cn(C2CC2)c2cc(N3CCNCC3)c(F)cc2c1=O` [Ciprofloxacin, ciprofloxacin], the MIC in the assay on Moraxella catarrhalis (agar dilution, read-out: MIC) was 0.25 µg/mL (≈ 0.754 µM); in the assay with Enterococcus faecium (agar dilution, read-out: MIC), 0.5 µg/mL (≈ 1.51 µM); in the assay with Streptococcus pyogenes (agar dilution, read-out: MIC), 0.5 µg/mL (≈ 1.51 µM); in the assay with Chlamydia pneumoniae (agar dilution, read-out: MIC), 0.12 µg/mL (≈ 0.362 µM); in the assay with Hemophilus influenzae (setting [1]) it was 0.15 µg/mL (≈ 0.453 µM); in the assay with Legionella pneumophila it was 0.06 µg/mL (≈ 0.181 µM). In addition, the MIC in the assay on S. aureus (MRSA) (setting [2]) was 32 µg/mL (≈ 96.6 µM); in the assay with E. faecium (VRE) (setting [3]), 2 µg/mL (≈ 6.04 µM); with S. pneumoniae (DRSP) (setting [4]), 2 µg/mL (≈ 6.04 µM); with Streptococcus pneumoniae (agar dilution, read-out: MIC), 0.13 µg/mL (≈ 0.392 µM); in the assay on Klebsiella pneumoniae (agar dilution, read-out: MIC) it was 0.06 µg/mL (≈ 0.181 µM); in the assay on Staphylococcus aureus (agar dilution, read-out: MIC) it was 0.06 µg/mL (≈ 0.181 µM).

Turning to `CN(C)c1ccc(O)c2c1C[C@H]1C[C@H]3[C@H](N(C)C)C(O)=C(C(N)=O)C(=O)[C@@]3(O)C(O)=C1C2=O` [Minocycline, minocycline], the MIC in the assay on Moraxella catarrhalis (agar dilution, read-out: MIC) worked out at 0.03 µg/mL (≈ 0.0656 µM); in the assay with Enterococcus faecium (agar dilution, read-out: MIC), 0.5 µg/mL (≈ 1.09 µM); in the assay with Streptococcus pyogenes (agar dilution, read-out: MIC) it was 0.12 µg/mL (≈ 0.262 µM); in the assay with Chlamydia pneumoniae (agar dilution, read-out: MIC), 0.5 µg/mL (≈ 1.09 µM); in the assay on Hemophilus influenzae (setting [1]), 0.25 µg/mL (≈ 0.546 µM); in the assay on Legionella pneumophila it was 0.12 µg/mL (≈ 0.262 µM). Besides, the MIC in the assay with S. aureus (MRSA) (setting [2]) was 8 µg/mL (≈ 17.5 µM); in the assay on E. faecium (VRE) (setting [3]) it was 16 µg/mL (≈ 35 µM); in the assay with S. pneumoniae (DRSP) (setting [4]) it was 16 µg/mL (≈ 35 µM); in the assay on Streptococcus pneumoniae (agar dilution, read-out: MIC), 0.5 µg/mL (≈ 1.09 µM); in the assay on Klebsiella pneumoniae (agar dilution, read-out: MIC) it was 0.13 µg/mL (≈ 0.284 µM); with Staphylococcus aureus (agar dilution, read-out: MIC), 0.25 µg/mL (≈ 0.546 µM). In the assay with Clostridium difficile, this compound came in with an MIC of 0.5 µg/mL (≈ 1.09 µM).
